Test results: patent US20240049713A1, “METHOD FOR CONTROLLING HERBICIDE-RESISTANT WEEDS” (SUMITOMO CHEMICAL COMPANY, LIMITED, priority 2020, published 2024)
Read-outs that look alike come from different tables or passages of the source.

Assays:
[1] = tested on: waterhemp (Amaranthus tuberculatus=Amaranthus rudis=Amaranthus tamariscinus) having Gly210 deficiency in PPO2; type: in vivo; conditions: rating 0 to 100, sprayed at plant height 20 cm, 200 L/ha, 1% (w/v) Agri-Dex, evaluated after 14 days in greenhouse
[2] = tested on: PPO inhibitor-resistant weeds; experiment: plastic pot tests as Examples 1 to 72 and variants (Examples 73 to 3456)
Protocol: On the same day, compound X is applied to the surface of soil so that the application rate of the compound X is 10, 20, 40 or 80 g/ha and the spray volume is 200 L/ha. The plastic pot is then placed in a greenhouse, and at 7 days after the application, soybeans are seeded, and further at 14 days after seeding the soybeans, the effect on the weeds and crop injuries on the soybeans are investigated.
On the same day, compound X is applied to the surface of soil so that the application rate of the compound X is 10, 20, 40 or 80 g/ha and the spray volume is 200 L/ha. The soybeans are then cultivated in a greenhouse, and at 21 days after seeding, the effect on the weeds and crop injuries on the soybeans are investigated.
The soybeans are then cultivated in a greenhouse, and at 21 days after seeding, compound X is foliar-treated so that the application rate of the compound X is 10, 20, 40 or 80 g/ha and the spray liquid amount is 200 L/ha. Further, the soybeans are cultivated in the greenhouse, and at 14 days after the application of compound X, the effect on the weeds and crop injuries on the soybeans are investigated.

[3] = as Examples 1 to 216, RoundupPowerMax 32 fluid ounce/acre and XtendiMax 1 pint/acre further added
[4] = applications as in Examples 1 to 72, compound X replaced, 10 to 80 g/ha

| SMILES | herbicidal effect ([1]; 20 g/ha) | herbicidal effect ([1]; 40 g/ha) | effect on the weeds [2, 3] | effect on the weeds [2, 4] |
| --- | --- | --- | --- | --- |
| CCOC(=O)COC(=O)C1(Oc2cc(-n3c(=O)cc(C(F)(F)F)n(C)c3=O)c(F)cc2Cl)CC1 [Compound X] | 99 | 99 | effective control effect |  |
| COC(=O)CCNC(=O)C(C)Sc1cc(-n2c(=O)cc(C(F)(F)F)n(C)c2=O)c(F)cc1Cl (stereo not drawn) [Tiafenacil, tiafenacil, reference compound] | 50 | 70 |  |  |
| COC(=O)COC(=O)C1(Oc2cc(-n3c(=O)cc(C(F)(F)F)n(C)c3=O)c(F)cc2Cl)CC1 [Compound Y] |  |  | effective control effect | effective control effect |
| Cn1c(C(F)(F)F)cc(=O)n(-c2cc(OC3(C(=O)OCC(=O)O)CC3)c(Cl)cc2F)c1=O [Compound Z] |  |  | effective control effect | effective control effect |
